For 45 compounds, IC50 and inhibition results are on record in US5817826A, “Oxazolinone derivatives having cytosolic phospholipase A2 inhibitory activity” (Shionogi & Co., Ltd., priority 1993, dated 1998).

The assay deals with T1, cytosolic PLA2 (Homo sapiens, UniProt P47712).
T1 sequence (P47712 1-749): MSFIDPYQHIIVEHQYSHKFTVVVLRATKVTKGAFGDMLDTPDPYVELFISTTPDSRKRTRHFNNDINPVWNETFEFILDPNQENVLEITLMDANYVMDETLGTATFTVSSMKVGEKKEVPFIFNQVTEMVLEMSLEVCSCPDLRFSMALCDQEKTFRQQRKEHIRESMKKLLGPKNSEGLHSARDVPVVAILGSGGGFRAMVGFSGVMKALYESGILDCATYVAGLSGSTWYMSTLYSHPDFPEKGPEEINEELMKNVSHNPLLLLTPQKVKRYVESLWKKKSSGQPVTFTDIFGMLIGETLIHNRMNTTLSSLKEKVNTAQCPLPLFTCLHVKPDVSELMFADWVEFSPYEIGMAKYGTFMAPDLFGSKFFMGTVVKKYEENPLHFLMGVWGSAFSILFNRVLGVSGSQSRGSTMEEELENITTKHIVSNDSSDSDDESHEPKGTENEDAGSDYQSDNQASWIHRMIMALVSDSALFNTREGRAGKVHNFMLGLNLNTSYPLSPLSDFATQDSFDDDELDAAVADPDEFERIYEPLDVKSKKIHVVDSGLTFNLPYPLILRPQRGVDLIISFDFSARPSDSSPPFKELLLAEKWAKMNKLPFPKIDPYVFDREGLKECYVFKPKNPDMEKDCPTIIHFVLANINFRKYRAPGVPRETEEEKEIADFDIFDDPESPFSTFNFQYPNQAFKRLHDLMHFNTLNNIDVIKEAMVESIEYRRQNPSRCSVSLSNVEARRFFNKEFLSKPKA
Kind of assay: Cytosolic PLA2 inhibition activity (sonicated liposomes with 1-palmitoyl-2-[14C]arachidonyl-sn-glycero-3-phosphocholine). The note with it: for pIC50: 2 μM radiolabeled phosphatidylcholine liposomes, 1 mM CaCl2, pH 7.4; for inhibition at 2 µM: compound at 2 μM, relative to enzyme control. In kind it is biochemical. As to the method:
Taking the above matter into consideration, the compounds of the present invention were evaluated for their effect on cytosolic PLA2 activity as described in published literature [Kramer, R. M., Robers, E. F., Manetta, J. and Putanam, J. E. et al., J. Biol. Chem. 268 (8): 5268-5272, 1991]. Briefly, PLA2 activity was assayed using sonicated liposomes containing 1-palmitoyl-2-[^14 C]arachidonyl-sn-glycero-3-phosphocholine and sn-1,2-dioleoyl glycerol at a molar ratio of 2:1. The assay mixture contained 1 mM CaCl2, 2 mM 2-mercaptoethanol, 150 mM NaCl, 50 mM Hepes, pH 7.4, and 0.1 mg/ml BSA. The substrate consisted of 2 μM radiolabeled phosphatidycholine liposomes containing 1 μM dioleoyl glycerol.
The amount of released fatty acids in the reaction as mentioned above was quantitated by a liquid scintillation counter. Separately, the same assay was performed except that the compound of the present invention was not added to serve as the enzyme control. The inhibitioory activity was expressed as a percent (%) of PLA2 activity in the enzyme control, and thereby 50% inhibition concentration was calculated.

pIC50: −log10 of the molar value.

With `O=c1oc(-c2ccccc2)c(-c2ccccc2)n1Cc1ccccc1` [Compound 0001], the pIC50 – broadly, −log10 of the IC50, conventionally taken in molar units – is 5.22 and 2 µM produced 34% inhibition. On to `Cn1c(-c2ccccc2)c(-c2ccccc2)oc1=O` [Compound 0002], for which the pIC50 was 4.17. The same measure, in the same setting: under `O=C(Cn1c(-c2ccccc2)c(-c2ccccc2)oc1=O)OC(c1ccccc1)c1ccccc1` [Compound 0003] stands 4.28; under `O=c1[nH]c(-c2ccccc2)c(-c2ccc(S(=O)(=O)NCCC[n+]3ccccc3)cc2)o1` [Compound 0028], 3.99. Same read-out and setting: under `O=C(O)c1[nH]c(=O)oc1-c1ccccc1` [Compound 0029] stands 3.99; under `CN1CCN(S(=O)(=O)c2ccc(-c3oc(=O)[nH]c3-c3ccccc3)cc2)CC1` [Compound 0037], 3.68.

As to `O=c1oc(-c2ccccc2)c(-c2ccccc2)n1Cc1cccc(F)c1` [Compound 0039, 3-(3-Fluorobenzyl)-4,5-diphenyl-oxazol-2-one], the negative logarithm of the IC50 (pIC50) was 5.21 and the inhibition (in general, how much of the control response was suppressed) at 2 µM is 24%. The matching figures for `CCCCn1c(-c2ccccc2)c(-c2ccccc2)oc1=O` [Compound 0044]: 4.27 and 19%. For `O=c1oc(-c2ccccc2)c(-c2ccccc2)n1Cc1ccccc1F` [Compound 0047, 3-(2-Fluorobenzyl)-4,5-diphenyl-oxazol-2-one], in that order: 4.46 and 17%. Consider `O=c1oc(-c2ccccc2)c(-c2ccccc2)n1Cc1ccc(F)cc1` [Compound 0048, 3-(4-Fluorobenzyl)-4,5-diphenyl-oxazol-2-one], for which the pIC50 is 4.77. Same read-out and setting: with `O=C(O)c1ccc(-c2oc(=O)n(Cc3ccccc3)c2-c2ccc(C(=O)O)cc2)cc1` [Compound 0054, 3-Benzyl-4,5-bis-(4-hydroxycarbonylphenyl)-3-oxazolin-2-one] the figure was 3.91; with `C#CCn1c(-c2ccccc2)c(-c2ccccc2)oc1=O` [Compound 0062, 3-(2-propynyl)-4,5-diphenyl-oxazol-2-one], 4.30; with `O=c1oc(-c2ccccc2)c(-c2ccccc2)n1S(=O)(=O)c1ccc2ccccc2c1` [Compound 0067], less than 4.30. Still for that read-out and setting: with `CC(C)=CCC/C(C)=C/CC/C(C)=C/Cn1c(-c2ccccc2)c(-c2ccccc2)oc1=O` [Compound 0069] the figure was 3.82. `CC(C)=CCC/C(C)=C/Cn1c(-c2ccccc2)c(-c2ccccc2)oc1=O` [Compound 0070] showed a negative logarithm of the IC50 (pIC50) of 5.37 and an inhibition at 2 µM of 46%. For `CC(C)=CCn1c(-c2ccccc2)c(-c2ccccc2)oc1=O` [Compound 0071], in that order: 4.89 and 18%. For the compound `O=c1oc(-c2ccccc2)cn1Cc1ccccc1` [Compound 0073, 3-Benzyl-5-phenyl-4-oxazolin-2-one], the negative logarithm of the IC50 (pIC50) was 4.30.

`O=c1oc(-c2ccccc2)c(-c2ccccc2)n1CCc1ccccc1` [Compound 0075, 4,5-Diphenyl-3-N-phenylethyl-3-oxazolin-2-one] showed a negative-log IC50 (pIC50) of 4.85 and an inhibition at 2 µM of 21%. Regarding `COC(=O)c1c(-c2ccccc2)oc(=O)n1Cc1ccccc1` [Compound 0079], the pIC50 is 3.66. In turn, `O=c1oc(-c2ccccc2)c(-c2ccccc2)n1Cc1ccc(Cl)s1` [Compound 0086] gave a negative logarithm of the IC50 (pIC50) of 5.08 and an inhibition at 2 µM of 19%.

As for `O=c1oc(-c2ccccc2)c(-c2ccccc2)n1CCCCOc1ccccc1` [Compound 0090], the pIC50 is 4.19 and the inhibition at 2 µM turned out to be 14%.

`O=c1oc(-c2ccccc2)c(-c2ccccc2)n1Cc1ccccn1` [Compound 0091, 3-(2'-Pyridylmethyl)-4,5-diphenyl-oxazol-2-one]: the pIC50 was 3.98 and at 2 µM the inhibition was 11%. `O=c1oc(-c2ccccc2)c(-c2ccccc2)n1CCCc1ccccc1` [Compound 0092] showed a pIC50 of 5.08 and an inhibition at 2 µM of 28%. For `CC(C)=CCC/C(C)=C/Cn1cc(-c2ccccc2)oc1=O` [Compound 0095], in that order: 4.46 and 26%. The matching figures for `O=c1oc(-c2ccccc2)cn1C(c1ccccc1)c1ccccc1` [Compound 0097]: 4.55 and 48%. For `O=c1oc(-c2ccccc2)c(-c2ccccc2)n1COCc1ccccc1` [Compound 0099], in that order: 4.38 and 12%. As to `O=c1oc(-c2ccccc2)c(-c2ccccc2)n1CCCCc1ccccc1` [Compound 0108], the negative-log IC50 (pIC50) is 4.23. Same read-out and setting: with `Cc1noc(C)c1Cn1c(-c2ccccc2)c(-c2ccccc2)oc1=O` [Compound 0109] the figure was 3.60; with `CC(C)=CCn1cc(C(c2ccccc2)(c2ccccc2)c2ccccc2)oc1=O` [Compound 0140], 4.05. `O=c1[nH]cc(C(c2ccccc2)c2ccccc2)o1` [Compound 0142]: the pIC50 was 3.66. `O=c1oc(C(c2ccccc2)c2ccccc2)cn1CCCOc1ccc(C(F)(F)F)cc1` [Compound 0153]: the negative logarithm of the IC50 (pIC50) is 3.90. On the same count and under the same terms, with `CC(C)=CCn1cc(C(c2ccccc2)c2ccccc2)oc1=O` [Compound 0155] the figure was 4.24. Same read-out and setting: with `CC(C)=CCC/C(C)=C/Cn1cc(C(c2ccccc2)c2ccccc2)oc1=O` [Compound 0156] the figure was 3.92; with `O=C1O[C@H](c2ccccc2)[C@H](c2ccccc2)N1Cc1cccc(F)c1` [Compound 0168], 4.18. As for `CC(C)=CCC/C(C)=C/CN1C(=O)O[C@H](c2ccccc2)[C@@H]1c1ccccc1` [Compound 0169], the negative-log IC50 (pIC50) was 4.07.

The compound `O=C1O[C@@H](c2ccccc2)[C@@H](c2ccccc2)N1Cc1cccc(F)c1` [Compound 0181] gave a negative logarithm of the IC50 (pIC50) of 4.00. On the same count and under the same terms, under `CC(C)=CCC/C(C)=C/CN1C(=O)O[C@@H](c2ccccc2)[C@H]1c1ccccc1` [Compound 0182] stands 4.18. Turning to `O=C1O[C@H](c2ccccc2)[C@H](c2ccccc2)N1Cc1ccc(Cl)s1` [Compound 0199], the pIC50 is 4.49 and testing at 2 µM gave an inhibition of 32%. Compound `O=C1O[C@H](c2ccccc2)[C@@H](c2ccccc2)N1Cc1cccc(F)c1` [Compound 0212] showed a negative logarithm of the IC50 (pIC50) of 4.37 and an inhibition at 2 µM of 21%. Consider `CC(C)=CCC/C(C)=C/CN1C(=O)O[C@H](c2ccccc2)[C@H]1c1ccccc1` [Compound 0213], for which the negative-log IC50 (pIC50) is 5.03 and testing at 2 µM gave an inhibition of 24%. Compound `O=C1O[C@H](c2ccccc2)[C@@H](c2ccccc2)N1Cc1ccc(Cl)s1` [Compound 0246] gave a pIC50 of 4.30 and an inhibition at 2 µM of 20%.

For the compound `O=C1O[C@H](c2ccccc2)[C@@H](c2ccccc2)N1CCCCc1ccccc1` [Compound 0247], the negative-log IC50 (pIC50) was 5.00 and the inhibition at 2 µM is 23%. The matching figures for `CC(C)=CCC/C(C)=C/CN1C(=O)O[C@@H](c2ccccc2)[C@@H]1c1ccccc1` [Compound 0288]: 5.70 and 50%.

`O=C1O[C@@H](c2ccccc2)[C@H](c2ccccc2)N1CCCCc1ccccc1` [Compound 0289]: the pIC50 was 5.18 and the inhibition at 2 µM was 36%. The matching figures for `CC(C)=CCC/C(C)=C\CN1C(=O)O[C@H](c2ccccc2)[C@H]1c1ccccc1` [Compound 0296]: 4.96 and 21%.
